What was measured:
[1] = tested on: ALOMY; assay: Pre-emergence herbicidal action against ALOMY; assay type: in vivo, Alopecurus myosuroides; conditions: application rate 80 g/ha, scored visually after about 3 weeks vs untreated controls (100% = plants have died, 0% = like control plants)
Description: (§1) 1. Pre-emergence herbicidal action against harmful plants and crop plant compatibility Seeds of monocotyledonous and dicotyledonous weed plants and crop plants are placed in plastic or wood-fibre pots and covered with soil. The compounds of the invention, formulated in the form of wettable powders (WP) or as emulsion concentrates (EC), are then applied onto the surface of the covering soil as aqueous suspension or emulsion with addition of 0.5% additive at a water application rate of 600 l/ha (converted). After the treatment, the pots are placed in a greenhouse and kept under good growth conditions for the trial plants. After about 3 weeks, the effect of the preparations is scored visually in comparison with untreated controls as percentages. For example, 100% activity=the plants have died, 0% activity=like control plants. [table]

[2] = tested on: AVEFA; assay: Pre-emergence herbicidal action against AVEFA; assay type: in vivo, Avena fatua; conditions: application rate 80 g/ha, scored visually after about 3 weeks vs untreated controls (100% = plants have died, 0% = like control plants)
Description: as §1

[3] = tested on: ECHCG; assay: Pre-emergence herbicidal action against ECHCG; assay type: in vivo, Echinochloa crus-galli; conditions: application rate 80 g/ha, scored visually after about 3 weeks vs untreated controls (100% = plants have died, 0% = like control plants)
Description: as §1

[4] = tested on: LOLRI; assay: Pre-emergence herbicidal action against LOLRI; assay type: in vivo, Lolium rigidum; conditions: application rate 80 g/ha, scored visually after about 3 weeks vs untreated controls (100% = plants have died, 0% = like control plants)
Description: as §1

[5] = tested on: SETVI; assay: Pre-emergence herbicidal action against SETVI; assay type: in vivo, Setaria viridis; conditions: application rate 80 g/ha, scored visually after about 3 weeks vs untreated controls (100% = plants have died, 0% = like control plants)
Description: as §1

[6] = tested on: AMARE; assay: Pre-emergence herbicidal action against AMARE; assay type: in vivo, Amaranthus retroflexus; conditions: application rate 80 g/ha
Description: as §1

[7] = tested on: POLCO; assay: Pre-emergence herbicidal action against POLCO; assay type: in vivo, Polygonum convolvulus; conditions: application rate 80 g/ha
Description: as §1

[8] = tested on: STEME; assay: Pre-emergence herbicidal action against STEME; assay type: in vivo, Stellaria media; conditions: application rate 80 g/ha
Description: as §1

[9] = tested on: VIOTR; assay: Pre-emergence herbicidal action against VIOTR; assay type: in vivo, Viola tricolor; conditions: application rate 80 g/ha
Description: as §1

[10] = tested on: VERPE; assay: Pre-emergence herbicidal action against VERPE; assay type: in vivo, Veronica persica; conditions: application rate 80 g/ha
Description: as §1

[11] = tested on: HORMU; assay: Pre-emergence herbicidal action against HORMU; assay type: in vivo, Hordeum murinum; conditions: application rate 80 g/ha
Description: as §1

[12] = tested on: ALOMY; assay: Post-emergence herbicidal action against ALOMY; assay type: in vivo, Alopecurus myosuroides; conditions: application rate 80 g/ha, rated visually after about 3 weeks
Outline: (§2)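 Foliar application at 600 l/ha water, 0.5% additive, WP or EC formulation; plants at one-leaf stage in greenhouse sandy loam pots. Scored visually ~3 weeks post-treatment, 0–100% relative to untreated plants.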

[13] = tested on: AVEFA; assay: Post-emergence herbicidal action against AVEFA; assay type: in vivo, Avena fatua; conditions: application rate 80 g/ha, rated visually after about 3 weeks
Outline: as §2

[14] = tested on: ECHCG; assay: Post-emergence herbicidal action against ECHCG; assay type: in vivo, Echinochloa crus-galli; conditions: application rate 80 g/ha, rated visually after about 3 weeks
Outline: as §2

[15] = tested on: LOLRI; assay: Post-emergence herbicidal action against LOLRI; assay type: in vivo, Lolium rigidum; conditions: application rate 80 g/ha, rated visually after about 3 weeks
Outline: as §2

[16] = tested on: STEME; assay: Post-emergence herbicidal action against STEME; assay type: in vivo, Stellaria media; conditions: application rate 80 g/ha, rated visually about 3 weeks after treatment
Outline: as §2

[17] = tested on: VIOTR; assay: Post-emergence herbicidal action against VIOTR; assay type: in vivo, Viola tricolor; conditions: application rate 80 g/ha, rated visually about 3 weeks after treatment
Outline: as §2

[18] = tested on: VERPE; assay: Post-emergence herbicidal action against VERPE; assay type: in vivo, Veronica persica; conditions: application rate 80 g/ha
Outline: as §2

[19] = tested on: HORMU; assay: Post-emergence herbicidal action against HORMU; assay type: in vivo, Hordeum murinum; conditions: application rate 80 g/ha
Outline: as §2

[20] = tested on: SETVI; assay: Post-emergence herbicidal action against SETVI; assay type: in vivo, Setaria viridis; conditions: application rate 80 g/ha, rated visually after about 3 weeks
Outline: as §2

[21] = tested on: AMARE; assay: Post-emergence herbicidal action against AMARE; assay type: in vivo, Amaranthus retroflexus; conditions: application rate 80 g/ha, rated visually about 3 weeks after treatment
Outline: as §2

[22] = tested on: POLCO; assay: Post-emergence herbicidal action against POLCO; assay type: in vivo, Polygonum convolvulus; conditions: application rate 80 g/ha, rated visually about 3 weeks after treatment
Outline: as §2

Compound | Herbicidal action against [%] ALOMY [1] [%] | Herbicidal action against [%] AVEFA [2] [%] | Herbicidal action against [%] ECHCG [3] [%] | Herbicidal action against [%] LOLRI [4] [%] | Herbicidal action against [%] SETVI [5] [%] | Herbicidal action against [%] AMARE [6] [%] | Herbicidal action against [%] STEME [8] [%] | Herbicidal action against [%] VERPE [10] [%] | Herbicidal action against [%] HORMU [11] [%] | Herbicidal action against [%] ALOMY [12] [%] | Herbicidal action against [%] AVEFA [13] [%] | Herbicidal action against [%] ECHCG [14] [%] | Herbicidal action against [%] LOLRI [15] [%] | Herbicidal action against [%] STEME [16] [%] | Herbicidal action against [%] VIOTR [17] [%] | Herbicidal action against [%] HORMU [19] [%] | further results
CC1(C(=O)NC2C=CC(C(=O)N3CCCCO3)C2)CC(c2cc(F)cc(F)c2)=NO1 (mixture of isomers) [II-07] | 100 | 80 | 90 | 100 | 100 | 100 | 100 | 100 | 90 | 80 | 80 | 80 | 80 | 90 | 80 | – | Herbicidal action against [%] POLCO [7]: 100%; Herbicidal action against [%] VIOTR [9]: 100%; Herbicidal action against [%] VERPE [18]: 80%
CC1(C(=O)N[C@@H]2CC=C(C(=O)O)C2)CC(c2cccc(F)c2)=NO1 (mixture of isomers) [III-01, (4R)-4-[[[(5SR)-3-(3-fluorophenyl)-5-methyl-4H-1,2-oxazol-5-yl]carbonyl]amino]cyclopentene-1-carboxylic acid] | – | – | – | – | – | – | – | 90 | 80 | – | 80 | – | – | – | – | – | –
COC(=O)C1=CC[C@@H](NC(=O)C2(C)CC(c3cccc(F)c3)=NO2)C1 (mixture of isomers) [III-03, methyl (4R)-4-[[[(5SR)-3-(3-fluorophenyl)-5-methyl-4H-1,2-oxazol-5-yl]carbonyl]amino]cyclopentene-1-carboxylate] | – | – | – | – | – | – | – | 80 | – | – | 90 | – | 80 | – | – | 90 | –
CONC(=O)C1=CCC(NC(=O)C2(C)CC(c3cccc(F)c3)=NO2)C1 (mixture of isomers) [IV-04] | 90 | 90 | 90 | 100 | 100 | 90 | 90 | – | 90 | 90 | 90 | 80 | 90 | 80 | 80 | 90 | Herbicidal action against [%] SETVI [20]: 80%; Herbicidal action against [%] AMARE [21]: 80%; Herbicidal action against [%] POLCO [22]: 80%
